Test results reported in PubChem BioAssay (NCI).
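Values below derive from 48-hour exposures of cells grown in 96-well plates, with endpoints linearly interpolated between the two concentrations bracketing the appropriate inhibition level. TGI: concentration producing complete growth inhibition.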

Legend:
Test in all cases: NCI anticancer screen, dose series, 48 h
OVCAR-4 ovarian = test system: OVCAR-4 ovarian
786-0 renal = test system: 786-0 renal
M19-MEL melanoma = test system: M19-MEL melanoma
SR leukemia = test system: SR leukemia
SNB-75 CNS = test system: SNB-75 CNS
DLD-1 colon = test system: DLD-1 colon
UACC-257 melanoma = test system: UACC-257 melanoma
ACHN renal = test system: ACHN renal
SN12C renal = test system: SN12C renal
SNB-19 CNS = test system: SNB-19 CNS
A498 renal = test system: A498 renal
SK-MEL-5 melanoma = test system: SK-MEL-5 melanoma
HCC-2998 colon = test system: HCC-2998 colon
IGROV1 ovarian = test system: IGROV1 ovarian
NCI-H522 lung = test system: NCI-H522 lung
CCRF-CEM leukemia = test system: CCRF-CEM leukemia
DMS 273 small cell lung = test system: DMS 273 small cell lung
DMS 114 small cell lung = test system: DMS 114 small cell lung
SK-MEL-28 melanoma = test system: SK-MEL-28 melanoma
TK-10 renal = test system: TK-10 renal
OVCAR-3 ovarian = test system: OVCAR-3 ovarian
KM20L2 colon = test system: KM20L2 colon
SNB-78 CNS = test system: SNB-78 CNS
HOP-18 NSCLC = test system: HOP-18 NSCLC
SK-OV-3 ovarian = test system: SK-OV-3 ovarian
EKVX NSCLC = test system: EKVX NSCLC
K-562 leukemia = test system: K-562 leukemia
OVCAR-8 ovarian = test system: OVCAR-8 ovarian
SF-268 CNS = test system: SF-268 CNS
CAKI-1 renal = test system: CAKI-1 renal
U251 CNS = test system: U251 CNS
M14 melanoma = test system: M14 melanoma
NCI-H226 lung = test system: NCI-H226 lung
MOLT-4 leukemia = test system: MOLT-4 leukemia
RPMI-8226 leukemia = test system: RPMI-8226 leukemia
UO-31 renal = test system: UO-31 renal
KM12 colon = test system: KM12 colon
MALME-3M melanoma = test system: MALME-3M melanoma
HOP-62 NSCLC = test system: HOP-62 NSCLC
HCT-15 colon = test system: HCT-15 colon
NCI-H460 lung = test system: NCI-H460 lung
OVCAR-5 ovarian = test system: OVCAR-5 ovarian
SF-539 CNS = test system: SF-539 CNS
HOP-92 NSCLC = test system: HOP-92 NSCLC
LXFL 529 NSCLC = test system: LXFL 529 NSCLC
SK-MEL-2 melanoma = test system: SK-MEL-2 melanoma
UACC-62 melanoma = test system: UACC-62 melanoma
RXF-631 renal = test system: RXF-631 renal
XF 498 CNS = test system: XF 498 CNS
SF-295 CNS = test system: SF-295 CNS
HT29 colon = test system: HT29 colon
LOX IMVI melanoma = test system: LOX IMVI melanoma
NCI-H23 lung = test system: NCI-H23 lung
COLO 205 colon = test system: COLO 205 colon
HL-60(TB) leukemia = test system: HL-60(TB) leukemia
HCT-116 colon = test system: HCT-116 colon
A549 NSCLC = test system: A549 NSCLC
SW-620 colon = test system: SW-620 colon

NC(N)=N/N=C(/CC1OC(=O)c2ccccc21)c1ccc2ccccc2c1 (configuration not stated)
TGI (OVCAR-4 ovarian): 37.4 µM | TGI (786-0 renal): 32.4 µM | TGI (M19-MEL melanoma): 31.6 µM | TGI (SR leukemia): 33.6 µM | TGI (SNB-75 CNS): 47.7 µM | TGI (DLD-1 colon): 28 µM | TGI (UACC-257 melanoma): 28.7 µM | TGI (ACHN renal): 33.7 µM | TGI (SN12C renal): 42.2 µM | TGI (SNB-19 CNS): > 100 µM | TGI (A498 renal): 33.4 µM | TGI (SK-MEL-5 melanoma): 35.8 µM | TGI (HCC-2998 colon): 31.1 µM | TGI (IGROV1 ovarian): 47.2 µM | TGI (NCI-H522 lung): 28.8 µM | TGI (CCRF-CEM leukemia): 43.8 µM | TGI (DMS 273 small cell lung): 44.9 µM | TGI (DMS 114 small cell lung): 25.6 µM | TGI (SK-MEL-28 melanoma): 35.2 µM | TGI (TK-10 renal): 35 µM | TGI (OVCAR-3 ovarian): 38.3 µM | TGI (KM20L2 colon): 57.2 µM | TGI (SNB-78 CNS): > 100 µM | TGI (HOP-18 NSCLC): 43.3 µM | TGI (SK-OV-3 ovarian): 74 µM | TGI (EKVX NSCLC): 52.9 µM | TGI (K-562 leukemia): 67 µM | TGI (OVCAR-8 ovarian): 31.5 µM | TGI (SF-268 CNS): 31.8 µM | TGI (CAKI-1 renal): > 100 µM | TGI (U251 CNS): 30.1 µM | TGI (M14 melanoma): 30.3 µM | TGI (NCI-H226 lung): 32.4 µM | TGI (MOLT-4 leukemia): 79.4 µM | TGI (RPMI-8226 leukemia): 48 µM | TGI (UO-31 renal): 32.7 µM | TGI (KM12 colon): 26.6 µM | TGI (MALME-3M melanoma): 30 µM | TGI (HOP-62 NSCLC): 42.1 µM | TGI (HCT-15 colon): 31.7 µM | TGI (NCI-H460 lung): 32.5 µM | TGI (OVCAR-5 ovarian): > 100 µM | TGI (SF-539 CNS): 31.9 µM | TGI (HOP-92 NSCLC): 55 µM | TGI (LXFL 529 NSCLC): 27.7 µM | TGI (SK-MEL-2 melanoma): > 100 µM | TGI (UACC-62 melanoma): 34.7 µM | TGI (RXF-631 renal): 65.2 µM | TGI (XF 498 CNS): 20.9 µM | TGI (SF-295 CNS): > 100 µM | TGI (HT29 colon): 45.7 µM | TGI (LOX IMVI melanoma): > 100 µM | TGI (NCI-H23 lung): 88.6 µM | TGI (COLO 205 colon): 39 µM | TGI (HL-60(TB) leukemia): 41.9 µM

CC(=O)N1CCc2[nH]c3ccccc3c2CC1
TGI (OVCAR-4 ovarian): > 100 µM | TGI (786-0 renal): > 100 µM | TGI (M19-MEL melanoma): > 100 µM | TGI (SNB-75 CNS): 98.9 µM | TGI (DLD-1 colon): > 100 µM | TGI (UACC-257 melanoma): > 100 µM | TGI (ACHN renal): > 100 µM | TGI (A498 renal): > 100 µM | TGI (SK-MEL-5 melanoma): > 100 µM | TGI (HCC-2998 colon): > 100 µM | TGI (IGROV1 ovarian): > 100 µM | TGI (CCRF-CEM leukemia): > 100 µM | TGI (DMS 273 small cell lung): > 100 µM | TGI (DMS 114 small cell lung): > 100 µM | TGI (SK-MEL-28 melanoma): > 100 µM | TGI (HCT-116 colon): > 100 µM | TGI (TK-10 renal): > 100 µM | TGI (OVCAR-3 ovarian): > 100 µM | TGI (KM20L2 colon): > 100 µM | TGI (A549 NSCLC): > 100 µM | TGI (SNB-78 CNS): > 100 µM | TGI (HOP-18 NSCLC): > 100 µM | TGI (SK-OV-3 ovarian): > 100 µM | TGI (EKVX NSCLC): > 100 µM | TGI (K-562 leukemia): > 100 µM | TGI (OVCAR-8 ovarian): > 100 µM | TGI (CAKI-1 renal): > 100 µM | TGI (U251 CNS): > 100 µM | TGI (M14 melanoma): > 100 µM | TGI (MOLT-4 leukemia): > 100 µM | TGI (RPMI-8226 leukemia): > 100 µM | TGI (KM12 colon): > 100 µM | TGI (MALME-3M melanoma): > 100 µM | TGI (HOP-62 NSCLC): > 100 µM | TGI (HCT-15 colon): > 100 µM | TGI (NCI-H460 lung): > 100 µM | TGI (OVCAR-5 ovarian): > 100 µM | TGI (SF-539 CNS): > 100 µM | TGI (HOP-92 NSCLC): > 100 µM | TGI (SW-620 colon): > 100 µM | TGI (LXFL 529 NSCLC): > 100 µM | TGI (SK-MEL-2 melanoma): > 100 µM | TGI (UACC-62 melanoma): > 100 µM | TGI (RXF-631 renal): > 100 µM | TGI (XF 498 CNS): > 100 µM | TGI (SF-295 CNS): > 100 µM | TGI (HT29 colon): > 100 µM | TGI (LOX IMVI melanoma): > 100 µM | TGI (NCI-H23 lung): > 100 µM | TGI (COLO 205 colon): > 100 µM | TGI (HL-60(TB) leukemia): > 100 µM

COC(=O)C(CC(=O)c1ccccc1)c1ccccc1NC(C)=O (configuration not stated)
TGI (OVCAR-4 ovarian): > 100 µM | TGI (786-0 renal): > 100 µM | TGI (M19-MEL melanoma): > 100 µM | TGI (SR leukemia): > 100 µM | TGI (SNB-75 CNS): > 100 µM | TGI (DLD-1 colon): > 100 µM | TGI (UACC-257 melanoma): > 100 µM | TGI (ACHN renal): > 100 µM | TGI (SN12C renal): > 100 µM | TGI (SNB-19 CNS): > 100 µM | TGI (A498 renal): > 100 µM | TGI (SK-MEL-5 melanoma): > 100 µM | TGI (HCC-2998 colon): > 100 µM | TGI (IGROV1 ovarian): > 100 µM | TGI (NCI-H522 lung): > 100 µM | TGI (CCRF-CEM leukemia): > 100 µM | TGI (DMS 114 small cell lung): > 100 µM | TGI (SK-MEL-28 melanoma): > 100 µM | TGI (HCT-116 colon): > 100 µM | TGI (TK-10 renal): > 100 µM | TGI (OVCAR-3 ovarian): > 100 µM | TGI (KM20L2 colon): > 100 µM | TGI (A549 NSCLC): > 100 µM | TGI (SNB-78 CNS): > 100 µM | TGI (HOP-18 NSCLC): > 100 µM | TGI (SK-OV-3 ovarian): > 100 µM | TGI (EKVX NSCLC): > 100 µM | TGI (K-562 leukemia): > 100 µM | TGI (OVCAR-8 ovarian): > 100 µM | TGI (SF-268 CNS): > 100 µM | TGI (CAKI-1 renal): > 100 µM | TGI (U251 CNS): > 100 µM | TGI (M14 melanoma): > 100 µM | TGI (NCI-H226 lung): > 100 µM | TGI (MOLT-4 leukemia): > 100 µM | TGI (RPMI-8226 leukemia): > 100 µM | TGI (UO-31 renal): > 100 µM | TGI (KM12 colon): > 100 µM | TGI (MALME-3M melanoma): > 100 µM | TGI (HOP-62 NSCLC): > 100 µM | TGI (HCT-15 colon): > 100 µM | TGI (NCI-H460 lung): > 100 µM | TGI (OVCAR-5 ovarian): > 100 µM | TGI (SF-539 CNS): > 100 µM | TGI (HOP-92 NSCLC): > 100 µM | TGI (SW-620 colon): > 100 µM | TGI (LXFL 529 NSCLC): > 100 µM | TGI (UACC-62 melanoma): > 100 µM | TGI (RXF-631 renal): > 100 µM | TGI (XF 498 CNS): > 100 µM | TGI (SF-295 CNS): > 100 µM | TGI (HT29 colon): > 100 µM | TGI (LOX IMVI melanoma): > 100 µM | TGI (NCI-H23 lung): > 100 µM | TGI (COLO 205 colon): > 100 µM | TGI (HL-60(TB) leukemia): > 100 µM
